What was measured:
HCC15 cells = experiment: MTS cell viability, HCC15; assay type: cell-based, human; settings: cell viability, Supplementary Figure 2C
Method: (§1) All human cancer cell lines were maintained in RPMI media supplemented with 5% (lung and breast cancer cells) or 10% (melanoma cells) fetal bovine serum. […] Human mammary epithelial cells immortalised with telomerase were maintained in complete MEGM media from Cambrex (East Rutherford, NJ, USA).
(§2) Absorbance at 490 and 650 nm (reference wavelength) was measured by a Spectra Max (Molecular Devices, Sunnyvale, CA, USA) or a FlouroStar Omega (BMG Biosciences, Ortenberg, Germany) plate reader. Data were normalised to the untreated controls (100% viability). Each cell line was tested in 1–5 independent assays, each containing 4–8 replicates. IC50 values were calculated using DIVISA, a high-throughput software, developed in-house (manuscript in preparation), for storing and analysing drug sensitivity assays. Dose–response curves were plotted using a non-linear regression model and IC50s were determined from the fitted curves.

[1] = test system: HCC4018 lung cancer cells; experiment: MTS cell viability, HCC4018; assay type: cell-based, human; settings: Homo sapiens, 96 h; HCC4018, MTS, 4 days
Method: as §1, §2

[2] = test system: HBEC34KT human bronchial epithelial cells; experiment: MTS cell viability, HBEC34KT; assay type: cell-based; settings: Homo sapiens, Epithelial cell, 96 h, HBEC34KT, 4 days
Method: as §1, §2

[3] = test system: OCM3 uveal melanoma cells; experiment: MTS cell viability, OCM3; assay type: cell-based, human; settings: Homo sapiens, 96 h, 4 days
Method: as §1, §2

LOXIMVI melanoma cells = experiment: MTS cell viability, LOXIMVI; assay type: cell-based, human; settings: LOXIMVI, 4 days
Method: as §1, §2

Melanocytes = experiment: MTS cell viability, primary melanocytes; assay type: cell-based, human; settings: Homo sapiens, Melanocyte, 96 h, 4 days
Method: as §1, §2

[4] = test system: patient-matched human bronchial epithelial cells/human non-small lung cancer cells (HBEC30KT/HCC4017, HBEC34KT/HCC4018); experiment: Cancer vs normal selectivity in patient-matched pairs (MTS viability); assay type: cell-based
Method: as §1, §2

[5] = test system: OMM2.3 uveal melanoma cells; experiment: MTS cell viability, OMM2.3; assay type: cell-based, human; settings: Homo sapiens, 96 h, 4 days
Method: as §1, §2

[6] = test system: MEL270 uveal melanoma cells; experiment: MTS cell viability, MEL270; assay type: cell-based, human; settings: Homo sapiens, 96 h, 4 days
Method: as §1, §2

[7] = test system: HBEC30KT human bronchial epithelial cells; experiment: MTS cell viability, HBEC30KT; assay type: cell-based; settings: Homo sapiens, Epithelial cell, 96 h, HBEC30KT, 4 days
Method: as §1, §2

[8] = test system: OCM1 uveal melanoma cells; experiment: MTS cell viability, OCM1; assay type: cell-based, human; settings: Homo sapiens, 96 h, 4 days
Method: as §1, §2

[9] = test system: HCC4017 lung cancer cells; experiment: MTS cell viability, HCC4017; assay type: cell-based, human; settings: Homo sapiens, 96 h; HCC4017, MTS, 4 days
Method: as §1, §2

SKMEL2 melanoma cells = experiment: MTS cell viability, SKMEL2; assay type: cell-based, human; settings: SK-MEL2, MTS, 4 days
Method: as §1, §2

H1437 cells = experiment: MTS cell viability, H1437; assay type: cell-based, human; settings: cell viability, Supplementary Figure 2D
Method: as §1, §2

H2073 cells = experiment: MTS cell viability, H2073; assay type: cell-based, human; settings: H2073 cells, verapamil plus depsipeptide
Method: as §1, §2

H1993 cells = experiment: MTS cell viability, H1993; assay type: cell-based, human; settings: H1993 cells, verapamil plus depsipeptide
Method: as §1, §2

**Q.** How did the “relative sensitivity of HCC15 compared with H1437 cells” value (HCC15 cells) turn out when O=C(CCCCCN1C(=O)c2cccc3cccc(c23)C1=O)NO [Scriptaid] was run?
**A.** more sensitive

**Q.** What does the source list for CCC(=O)CCCCC[C@@H]1NC(=O)[C@H]2CCCCN2C(=O)[C@H]([C@@H](C)CC)NC(=O)[C@H](Cc2cn(OC)c3ccccc23)NC1=O [Apicidin, apicidin]?
**A.** IC50 [1]: 30 nM; IC50 [2]: 790 nM; IC50 [3]: 4000 nM; sensitivity (position in drug sensitivity profile of melanoma panel) (LOXIMVI melanoma cells): sensitive; IC50 (Melanocytes): 200 nM; selectivity for cancer vs normal within a matched pair ([4]; one matched lung cancer/HBEC pair): no selectivity; selectivity for cancer vs normal within a matched pair ([4]; second pair of lines): ~25 fold; IC50 [5]: 400 nM; IC50 [6]: 650 nM; IC50 [7]: 90 nM; IC50 [8]: 700 nM; IC50 [9]: 120 nM; sensitivity (position in drug sensitivity profile of melanoma panel) (SKMEL2 melanoma cells): on the sensitive side

**Q.** Nc1ccccc1NC(=O)c1ccc(CNC(=O)OCc2cccnc2)cc1 [MS-275] was tested. Which “relative potency against H1437 vs HCC15 cells” value (H1437 cells) did it give?
**A.** more potent against H1437 cells than HCC15 cells

**Q.** Which “restoration of sensitivity to depsipeptide by MDR1 inhibition” value (H2073 cells) does the source give for COc1ccc(CCN(C)CCCC(C#N)(c2ccc(OC)c(OC)c2)C(C)C)cc1OC (centres unmarked) [verapamil] here?
**A.** partly re-sensitised

**Q.** And the “restoration of sensitivity to depsipeptide by MDR1 inhibition” value (H1993 cells)?
**A.** not affecting

— publication PMC3251870 (British Journal of Cancer, 2011)
